From US5502035A, “N-terminus modified analogs of LHRH” (Tap Holdings Inc., priority 1994, dated 1996)
Starred links: 1 amine or outer side, 2 acyl side, 3 side chain; linkers in the order of their positions; H or OH if unused. Non-standard residues stand in square brackets, D forms with d. Residues, ends and D or L forms follow the SMILES beside them. *: point of attachment. Shikimoyl = O=C(C1=C[C@@H](O)[C@@H](O)[C@H](O)C1)*; dPhe(4-Cl) = N[C@H](Cc1ccc(Cl)cc1)C(=O)O; d2Nal = N[C@H](Cc1ccc2ccccc2c1)C(=O)O; NMeY = CN[C@@H](Cc1ccc(O)cc1)C(=O)O; dCit = NC(=O)NCCC[C@@H](N)C(=O)O; d3Pal = N[C@H](Cc1cccnc1)C(=O)O; Suc = O=C(CCC(=O)[*:2])[*:1]; Nicotinoyl = O=C(c1cccnc1)*; Sar = CNCC(=O)O

Biological target: T1, LHRH (Rattus norvegicus, UniProt P30969)
T1 construct: endogenous in cells; host or cells: rat pituitary cells (own knowledge of the cited Haviv 1989 method)
T1 sequence (P30969 1-327): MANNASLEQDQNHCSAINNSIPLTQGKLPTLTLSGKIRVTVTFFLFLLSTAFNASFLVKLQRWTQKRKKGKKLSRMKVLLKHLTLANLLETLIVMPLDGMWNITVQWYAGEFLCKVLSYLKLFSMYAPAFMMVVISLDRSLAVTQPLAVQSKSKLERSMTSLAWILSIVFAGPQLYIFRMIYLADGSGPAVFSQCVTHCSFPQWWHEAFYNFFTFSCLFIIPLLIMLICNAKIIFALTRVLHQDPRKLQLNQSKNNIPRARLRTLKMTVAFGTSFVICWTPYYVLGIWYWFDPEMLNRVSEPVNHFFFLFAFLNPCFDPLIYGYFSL
Assay: in vitro test for LHRH antagonist potency (pA2)
Type: cell-based
Details: negative logarithm of the antagonist concentration required to shift the response curve produced by the agonist leuprolide to two-fold higher concentration
Protocol: Representative compounds of the present invention were evaluated in an in vitro test for LHRH antagonist potency (pA2). The test employed the method detailed in F. Haviv, et al. J. Med. Chem., 32:2340-2344 (1989). The values of pA2 are the negative logarithms of the concentration of the particular antagonist test compound required to shift the response curve produced by the agonist leuprolide to two-fold higher concentration. (Leuprolide is the LHRH agonist having the structure 5-oxo-Pro^1 -His^2 -Trp^3 -Ser^4 -Tyr^5 -D-Leu^6 -Leu^7 -Arg^8 -Pro^9 -NHEt and is disclosed and claimed in U.S. Pat. No. 4,005,063.) Typically pA2 values of 9.5 or greater are indicative of good LHRH antagonist potency, with values of 10.0 or greater being preferred.

Row | SMILES | Kb
1 | CC(C)C[C@H](NC(=O)[C@@H](CCCNC(N)=O)NC(=O)[C@H](Cc1ccc(O)cc1)N(C)C(=O)[C@H](CO)NC(=O)[C@@H](Cc1cccnc1)NC(=O)[C@@H](Cc1ccc(Cl)cc1)NC(=O)[C@@H](Cc1ccc2ccccc2c1)NC(=O)CNC(=O)C1=C[C@@H](O)[C@@H](O)[C@H](O)C1)C(=O)N[C@@H](CCCNC(=N)N)C(=O)N1CCC[C@H]1C(=O)N[C@H](C)C(N)=O [Example 13b, N-Shikimyl-Gly-D2Nal-D4ClPhe-D3Pal-Ser-NMeTyr-DCit-Leu-Arg-Pro-DAlaNH2] (Shikimoyl-G[d2Nal][dPhe(4-Cl)][d3Pal]S[NMeY][dCit]LRP[dA]-NH2) | 0.00955 nM
2 | CC(C)C[C@H](NC(=O)[C@@H](CCCNC(N)=O)NC(=O)[C@H](Cc1ccc(O)cc1)N(C)C(=O)[C@H](CO)NC(=O)[C@@H](Cc1cccnc1)NC(=O)[C@@H](Cc1ccc(Cl)cc1)NC(=O)[C@@H](Cc1ccc2ccccc2c1)NC(=O)CNC(=O)c1cccnc1)C(=O)N[C@@H](CCCNC(=N)N)C(=O)N1CCC[C@H]1C(=O)N[C@H](C)C(N)=O [Example 13c, N-Nicotinyl-Gly-D2Nal-D4ClPhe-D3Pal-Ser-NMeTyr-DCit-Leu-Arg-Pro-DAlaNH2] (Nicotinoyl-G[d2Nal][dPhe(4-Cl)][d3Pal]S[NMeY][dCit]LRP[dA]-NH2) | 0.00355 nM
3 | CC(C)C[C@H](NC(=O)[C@@H](CCCNC(N)=O)NC(=O)[C@H](Cc1ccc(O)cc1)N(C)C(=O)[C@H](CO)NC(=O)[C@@H](Cc1cccnc1)NC(=O)[C@@H](Cc1ccc(Cl)cc1)NC(=O)[C@@H](Cc1ccc2ccccc2c1)NC(=O)CNC(=O)CCC(=O)O)C(=O)N[C@@H](CCCNC(=N)N)C(=O)N1CCC[C@H]1C(=O)N[C@H](C)C(N)=O [Example 13d, N-Succinyl-Gly-D2Nal-D4ClPhe-D3Pal-Ser-NMeTyr-DCit-Leu-Arg-Pro-DAlaNH2] (Suc-G[d2Nal][dPhe(4-Cl)][d3Pal]S[NMeY][dCit]LRP[dA]-NH2) | 0.0407 nM
4 | CC(C)C[C@H](NC(=O)[C@@H](CCCNC(N)=O)NC(=O)[C@H](Cc1ccc(O)cc1)N(C)C(=O)[C@H](CO)NC(=O)[C@@H](Cc1cccnc1)NC(=O)[C@@H](Cc1ccc(Cl)cc1)NC(=O)[C@@H](Cc1ccc2ccccc2c1)NC(=O)[C@@H](C)NC(=O)C1=C[C@@H](O)[C@@H](O)[C@H](O)C1)C(=O)N[C@@H](CCCNC(=N)N)C(=O)N1CCC[C@H]1C(=O)N[C@H](C)C(N)=O [Example 13e, N-Shikimyl-DAla-D2Nal-D4ClPhe-D3Pal-Ser-NMeTyr-DCit-Leu-Arg-Pro-DAlaNH2] (Shikimoyl-[dA][d2Nal][dPhe(4-Cl)][d3Pal]S[NMeY][dCit]LRP[dA]-NH2) | 0.0316 nM
5 | CC(C)C[C@H](NC(=O)[C@@H](CCCNC(N)=O)NC(=O)[C@H](Cc1ccc(O)cc1)N(C)C(=O)[C@H](CO)NC(=O)[C@@H](Cc1cccnc1)NC(=O)[C@@H](Cc1ccc(Cl)cc1)NC(=O)[C@@H](Cc1ccc2ccccc2c1)NC(=O)[C@@H](CO)NC(=O)C1=C[C@@H](O)[C@@H](O)[C@H](O)C1)C(=O)N[C@@H](CCCNC(=N)N)C(=O)N1CCC[C@H]1C(=O)N[C@H](C)C(N)=O [Example 13f, N-Shikimyl-DSer-D2Nal-D4ClPhe-D3Pal-Ser-NMeTyr-DCit-Leu-Arg-Pro-DAlaNH2] (Shikimoyl-[dS][d2Nal][dPhe(4-Cl)][d3Pal]S[NMeY][dCit]LRP[dA]-NH2) | 0.0178 nM
6 | CC(C)C[C@H](NC(=O)[C@@H](CCCCNC(=O)C1=C[C@@H](O)[C@@H](O)[C@H](O)C1)NC(=O)[C@H](Cc1ccc(O)cc1)N(C)C(=O)[C@H](CO)NC(=O)[C@@H](Cc1cccnc1)NC(=O)[C@@H](Cc1ccc(Cl)cc1)NC(=O)[C@@H](Cc1ccc2ccccc2c1)NC(=O)CN(C)C(=O)c1cccnc1)C(=O)N[C@@H](CCCNC(=N)N)C(=O)N1CCC[C@H]1C(=O)N[C@H](C)C(N)=O [Example 14a, N-Nicotinyl-Sar-D2Nal-D4ClPhe-D3Pal-Ser-NMeTyr-DLys(Shik)-Leu-Arg-Pro-DAlaNH2] (Nicotinoyl-[Sar][d2Nal][dPhe(4-Cl)][d3Pal]S[NMeY][dK](Shikimoyl)LRP[dA]-NH2) | 0.0132 nM
7 | CC(C)C[C@H](NC(=O)[C@@H](CCCCNC(=O)C1=C[C@@H](O)[C@@H](O)[C@H](O)C1)NC(=O)[C@H](Cc1ccc(O)cc1)N(C)C(=O)[C@H](CO)NC(=O)[C@@H](Cc1cccnc1)NC(=O)[C@@H](Cc1ccc(Cl)cc1)NC(=O)[C@@H](Cc1ccc2ccccc2c1)NC(=O)CN(C)C(=O)C1=C[C@@H](O)[C@@H](O)[C@H](O)C1)C(=O)N[C@@H](CCCNC(=N)N)C(=O)N1CCC[C@H]1C(=O)N[C@H](C)C(N)=O [Example 14b, N-Shikimyl-Sar-D2Nal-D4ClPhe-D3Pal-Ser-NMeTyr-DLys(Shik)-Leu-Arg-Pro-DAlaNH2] (Shikimoyl-[Sar][d2Nal][dPhe(4-Cl)][d3Pal]S[NMeY][dK](Shikimoyl)LRP[dA]-NH2) | 0.105 nM
8 | CC(C)C[C@H](NC(=O)[C@@H](CCCCNC(=O)C1=C[C@@H](O)[C@@H](O)[C@H](O)C1)NC(=O)[C@H](Cc1ccc(O)cc1)N(C)C(=O)[C@H](CO)NC(=O)[C@@H](Cc1cccnc1)NC(=O)[C@@H](Cc1ccc(Cl)cc1)NC(=O)[C@@H](Cc1ccc2ccccc2c1)NC(=O)[C@@H](C)NC(=O)c1cccnc1)C(=O)N[C@@H](CCCNC(=N)N)C(=O)N1CCC[C@H]1C(=O)N[C@H](C)C(N)=O [Example 14c, N-Nicotinyl-DAla-D2Nal-D4ClPhe-D3Pal-Ser-NMeTyr-DLys(Shik)-Leu-Arg-Pro-DAlaNH2] (Nicotinoyl-[dA][d2Nal][dPhe(4-Cl)][d3Pal]S[NMeY][dK](Shikimoyl)LRP[dA]-NH2) | 0.00537 nM
9 | CC(C)C[C@H](NC(=O)[C@@H](CCCCNC(=O)C1=C[C@@H](O)[C@@H](O)[C@H](O)C1)NC(=O)[C@H](Cc1ccc(O)cc1)N(C)C(=O)[C@H](CO)NC(=O)[C@@H](Cc1cccnc1)NC(=O)[C@@H](Cc1ccc(Cl)cc1)NC(=O)[C@@H](Cc1ccc2ccccc2c1)NC(=O)[C@@H](C)NC(=O)C1=C[C@@H](O)[C@@H](O)[C@H](O)C1)C(=O)N[C@@H](CCCNC(=N)N)C(=O)N1CCC[C@H]1C(=O)N[C@H](C)C(N)=O [Example 14d, N-Shikimyl-DAla-D2Nal-D4ClPhe-D3Pal-Ser-NMeTyr-DLys(Shik)-Leu-Arg-Pro-DAlaNH2] (Shikimoyl-[dA][d2Nal][dPhe(4-Cl)][d3Pal]S[NMeY][dK](Shikimoyl)LRP[dA]-NH2) | 0.00891 nM
10 | CC(C)C[C@H](NC(=O)[C@@H](CCCCNC(=O)C1=C[C@@H](O)[C@@H](O)[C@H](O)C1)NC(=O)[C@H](Cc1ccc(O)cc1)N(C)C(=O)[C@H](CO)NC(=O)[C@@H](Cc1cccnc1)NC(=O)[C@@H](Cc1ccc(Cl)cc1)NC(=O)[C@@H](Cc1ccc2ccccc2c1)NC(=O)[C@@H](CO)NC(=O)c1cccnc1)C(=O)N[C@@H](CCCNC(=N)N)C(=O)N1CCC[C@H]1C(=O)N[C@H](C)C(N)=O [Example 14e, N-Nicotinyl-DSer-D2Nal-D4ClPhe-D3Pal-Ser-NMeTyr-DLys(Shik)-Leu-Arg-Pro-DAlaNH2] (Nicotinoyl-[dS][d2Nal][dPhe(4-Cl)][d3Pal]S[NMeY][dK](Shikimoyl)LRP[dA]-NH2) | 0.0195 nM
11 | CC(C)C[C@H](NC(=O)[C@@H](CCCCNC(=O)C1=C[C@@H](O)[C@@H](O)[C@H](O)C1)NC(=O)[C@H](Cc1ccc(O)cc1)N(C)C(=O)[C@H](CO)NC(=O)[C@@H](Cc1cccnc1)NC(=O)[C@@H](Cc1ccc(Cl)cc1)NC(=O)[C@@H](Cc1ccc2ccccc2c1)NC(=O)[C@@H](CO)NC(=O)C1=C[C@@H](O)[C@@H](O)[C@H](O)C1)C(=O)N[C@@H](CCCNC(=N)N)C(=O)N1CCC[C@H]1C(=O)N[C@H](C)C(N)=O [Example 14f, N-Shikimyl-DSer-D2Nal-D4ClPhe-D3Pal-Ser-NMeTyr-DLys(Shik)-Leu-Arg-Pro-DAlaNH2] (Shikimoyl-[dS][d2Nal][dPhe(4-Cl)][d3Pal]S[NMeY][dK](Shikimoyl)LRP[dA]-NH2) | 0.0355 nM
12 | CC(C)C[C@H](NC(=O)[C@@H](CCCCNC(=O)C1=C[C@@H](O)[C@@H](O)[C@H](O)C1)NC(=O)[C@H](Cc1ccc(O)cc1)N(C)C(=O)[C@H](CO)NC(=O)[C@@H](Cc1cccnc1)NC(=O)[C@@H](Cc1ccc(Cl)cc1)NC(=O)[C@@H](Cc1ccc2ccccc2c1)NC(=O)[C@@H](CCCCNC(=O)c1cccnc1)NC(=O)c1cccnc1)C(=O)N[C@@H](CCCNC(=N)N)C(=O)N1CCC[C@H]1C(=O)N[C@H](C)C(N)=O [Example 14g, N-Nicotinyl-DLys(Nic)-D2Nal-D4ClPhe-D3Pal-Ser-NMeTyr-DLys(Shik)-Leu-Arg-Pro-DAlaNH2] (Nicotinoyl-[dK](Nicotinoyl)[d2Nal][dPhe(4-Cl)][d3Pal]S[NMeY][dK](Shikimoyl)LRP[dA]-NH2) | 0.11 nM
13 | CC(C)C[C@H](NC(=O)[C@@H](CCCCNC(=O)C1=C[C@@H](O)[C@@H](O)[C@H](O)C1)NC(=O)[C@H](Cc1ccc(O)cc1)N(C)C(=O)[C@H](CO)NC(=O)[C@@H](Cc1cccnc1)NC(=O)[C@@H](Cc1ccc(Cl)cc1)NC(=O)[C@@H](Cc1ccc2ccccc2c1)NC(=O)[C@@H](CCCCNC(=O)c1cccnc1)NC(=O)C1=C[C@@H](O)[C@@H](O)[C@H](O)C1)C(=O)N[C@@H](CCCNC(=N)N)C(=O)N1CCC[C@H]1C(=O)N[C@H](C)C(N)=O [Example 14h, N-Shikimyl-DLys(Nic)-D2Nal-D4ClPhe-D3Pal-Ser-NMeTyr-DLys(Shik)-Leu-Arg-Pro-DAlaNH2] (Shikimoyl-[dK](Nicotinoyl)[d2Nal][dPhe(4-Cl)][d3Pal]S[NMeY][dK](Shikimoyl)LRP[dA]-NH2) | 0.00417 nM
